Results on nine molecules are retold here after patent publication US6420367B1, “Pyrimidine derivatives exhibiting antitumor activity” (Shionogo & Co., Ltd., priority 1998, dated 2002).

≈ marks a conversion by molar mass, not a printed value.

A word on the melting point: it is the temperature, or range, at which the solid turns liquid. By IC50 is commonly meant the concentration needed to halve the response being measured.

In one data set the test system is human lung cancer Ma44. Kind of data set: Evaluation of in vivo antitumor efficacy, tumor growth inhibition. Further details: species or system mouse. The conditions noted are these: Ma44 in Balb/c nude mice; 30 mg/kg orally daily for 14 days; P<0.01. The text has this:
(§1) Test Example 3 Evaluation of in Vivo Antitumor Efficacy
(§2) Murine colon cancer Colon 26, human lung cancer RERF-LC-AI and human lung cancer Ma44 were used. Murine- and human-derived tumor cells were maintained by serial transplantation in Balb/c and Balb/c nude mice, respectively. After tumor implantation, compound A-42 suspended in 5% methylcellulose solution were orally administered daily for 14 days. Tumor size (short diameter and long diameter) was scored throughout the experiment and tumor volume was calculated. Antitumor efficacy was evaluated as growth inhibition which was estimated by Treated/Control ratio and shown as % inhibition.

For data set [1], the system named is Murine colon cancer Colon 26. Described as above. Further details: species or system mouse. Particulars: Colon 26 in Balb/c mice; 30 mg/kg orally daily for 14 days; P<0.01.
Text: as §1, §2

Data set [2] has as its system human squamous lung cancer RERF-RC-AI. Briefly: In vitro cell growth inhibition test, MTT assay. The format is cell-based. The conditions noted are these: MTT assay 4 days after compound addition. The gist of the method:
(§3)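 Growth inhibition was measured by MTT assay across a panel of human tumour cell lines that also included pancreatic cancer PANC-1.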

Data set [3] has as its system human squamous lung cancer Ma44. Kind of data set: In vitro cell growth inhibition test, MTT assay. The format is cell-based. Particulars: MTT assay 4 days after compound addition. The gist of the method:
as §3

The next data set concerns human colon cancer HT29. Briefly: In vitro cell growth inhibition test, MTT assay. The class given is cell-based. Particulars: MTT assay 4 days after compound addition. Put shortly:
as §3
(In general: Formazan colour is commonly taken as a measure of viable cells.)

Data set [4] has as its system DT-R cells (pRRE3-luc-transfected v-ki-ras-transformed NIH3T3 cells); signal derived from Ras oncogene products. Kind of data set: Inhibitory effect against cellular signaling derived from Ras oncogene products: luciferase reporter, dissociation of DT-R from DT-C activity (MAC). The class given is cell-based, mouse. Particulars: minimal tested concentration at which luciferase activities of DT-C cells and DT-R cells dissociated. Put shortly: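 DT-R (pRRE3-luc) and control DT-C (pGV-P) v-Ki-ras NIH3T3 cells were exposed 24 h to compound in 3-fold dilutions in DMEM/10% FCS at 37 °C, then lysed for luciferase luminescence. MAC is the lowest tested concentration at which DT-R and DT-C activities dissociate.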
For orientation: In a reporter assay the amount or activity of a reporter protein is the signal.

The subject of data set [5] is human lung cancer RERF-LC-AI. Briefly: Evaluation of in vivo antitumor efficacy, tumor growth inhibition. Particulars: RERF-LC-AI in Balb/c nude mice; 30 mg/kg orally daily for 14 days; P<0.01.
Text: as §1, §2

The subject of data set [6] is DT-C cells (pGV-P-transfected v-ki-ras-transformed NIH3T3 cells). Briefly: Luciferase activity in control DT-C cells (IC50-C): non-specific transcription-inhibitory effect or cytotoxicity. The format is cell-based, mouse. Particulars: tested concentration nearest to 50% inhibition in DT-C cells, index of non-specific transcription inhibition or cytotoxicity. Put shortly:
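Luciferase from an SV40 minimal promoter was read in DT-C cells (2500 cells/well) 24 h after compound addition at […] to 0.51 ng/ml in 3-fold steps. IC50-C is the tested concentration nearest 50% inhibition.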

Data set [7] deals with human lung adenocarcinoma A549. Briefly: In vitro cell growth inhibition test, MTT assay. The class given is cell-based. Particulars: MTT assay 4 days after compound addition. The gist of the method: as §3
Data set [8] has as its system human pancreas cancer PANC-1. Kind of data set: In vitro cell growth inhibition test, MTT assay. The class given is cell-based. Particulars: MTT assay 4 days after compound addition. Put shortly: as §3

For the molecule `CCNC(=Nc1nc(C)ncc1CSc1nnc(-c2ccc(N)cc2)o1)NCC` [Compound A-42], the “Growth inhibition (Treated/Control ratio, shown as % inhibition)” value is 66% in the data set with human lung cancer Ma44, 70% in data set [1] and 74% in data set [5]. Further, the “IC50, RERF-LC-AI” value in data set [2] is 8.3 ng/mL (≈ 0.0201 µM). In addition, the “IC50, Ma44” value in data set [3] was 49 ng/mL (≈ 0.119 µM). In the data set with human colon cancer HT29, the “IC50, HT29” value came to 11 ng/mL (≈ 0.0267 µM). Further, the “MAC (Minimal Active Concentration)” value in data set [4] is 0.0137 µg/mL. In [6], this molecule gave an IC50-C of more than 10 µg/mL.

`CCNC(=Nc1nc(C)ncc1CSc1nnc(-c2ccc(N)cc2)o1)NC(C)C` [Compound A-182]: the “IC50, RERF-LC-AI” value in data set [2] worked out at 5.6 ng/mL (≈ 0.0131 µM). In addition, the “IC50, Ma44” value in data set [3] was 16 ng/mL (≈ 0.0375 µM). The “IC50, A549” value in data set [7] stood at 14 ng/mL (≈ 0.0328 µM). For the same molecule, the “IC50, HT29” value in the data set with human colon cancer HT29 amounted to 11 ng/mL (≈ 0.0258 µM). Besides, the “IC50, PANC-1” value in data set [8] came out at 7.3 ng/mL (≈ 0.0171 µM). For the same molecule, the “MAC (Minimal Active Concentration)” value in [4] amounted to 0.0137 µg/mL. Further, the IC50-C in data set [6] is 3.3 µg/mL (≈ 7.74 µM).

In the case of `CCNC(=Nc1nc(C)ncc1CSc1nnc(-c2ccc(N)cc2)o1)NCC.Cl.Cl` [Compound A-186], in data set [2], the “IC50, RERF-LC-AI” value came out at 14 ng/mL. Further, the “IC50, Ma44” value in data set [3] is 57 ng/mL. Further, the “IC50, A549” value in [7] was found to be 48 ng/mL. Besides, the “IC50, HT29” value in the data set with human colon cancer HT29 amounted to 14 ng/mL. Also, the “IC50, PANC-1” value in data set [8] stood at 17 ng/mL. For the same molecule, in data set [4], the “MAC (Minimal Active Concentration)” value turned out to be 0.0412 µg/mL. The molecule further gave an IC50-C in [6] of more than 10 µg/mL.

Take `CCNC(=Nc1nc(C)ncc1CSc1nnc(-c2ccc([N+](=O)[O-])cc2)o1)NCC.Cl` [Compound A-187]: in data set [2], the “IC50, RERF-LC-AI” value was 12 ng/mL. In addition, the “IC50, Ma44” value in data set [3] is 17 ng/mL. Besides, the “IC50, A549” value in data set [7] worked out at 25 ng/mL. Further, in the data set with human colon cancer HT29, the “IC50, HT29” value stood at 13 ng/mL. The “IC50, PANC-1” value in data set [8] is 14 ng/mL. In addition, the “MAC (Minimal Active Concentration)” value in [4] was 0.0137 µg/mL. The molecule further had an IC50-C in data set [6] of more than 10 µg/mL.

Regarding `CCNC(=Nc1nc(C)ncc1CSc1nnc(-c2ccc(N)nc2)o1)NCC` [Compound D-6], the “IC50, RERF-LC-AI” value in [2] was 37 ng/mL (≈ 0.0895 µM). For the same molecule, the “IC50, Ma44” value in data set [3] was determined as 320 ng/mL (≈ 0.774 µM). Moreover, the “IC50, A549” value in [7] turned out to be 330 ng/mL (≈ 0.798 µM). In addition, the “IC50, HT29” value in the data set with human colon cancer HT29 was 39 ng/mL (≈ 0.0943 µM). In addition, the “IC50, PANC-1” value in [8] turned out to be 85 ng/mL (≈ 0.206 µM). For the same molecule, the “MAC (Minimal Active Concentration)” value in data set [4] is 0.370 µg/mL. The molecule further showed an IC50-C in data set [6] of more than 10 µg/mL.

Turning to `CCNC(=Nc1nc(C)ncc1CSc1nnc(-c2ccsc2N)o1)NCC` [Compound D-8], the “IC50, RERF-LC-AI” value in [2] worked out at 12 ng/mL (≈ 0.0287 µM). Moreover, in [3], the “IC50, Ma44” value was found to be 36 ng/mL (≈ 0.086 µM). The “IC50, A549” value in data set [7] was found to be 27 ng/mL (≈ 0.0645 µM). In the data set on human colon cancer HT29, the “IC50, HT29” value was found to be 30 ng/mL (≈ 0.0717 µM). Further, the “IC50, PANC-1” value in [8] was determined as 13 ng/mL (≈ 0.0311 µM). Also, the “MAC (Minimal Active Concentration)” value in data set [4] amounted to 0.0412 µg/mL. This molecule also gave an IC50-C in [6] of more than 10 µg/mL.

Turning to `CCNC(=Nc1ncncc1CSc1nnc(-c2ccncc2N)o1)NCC` [Compound D-37], the “IC50, RERF-LC-AI” value in data set [2] was 11 ng/mL (≈ 0.0275 µM). For the same molecule, in data set [3], the “IC50, Ma44” value amounted to 24 ng/mL (≈ 0.0601 µM). In data set [7], the “IC50, A549” value was found to be 28 ng/mL (≈ 0.0701 µM). Besides, the “IC50, HT29” value in the data set with human colon cancer HT29 was found to be 15 ng/mL (≈ 0.0375 µM). Besides, the “IC50, PANC-1” value in data set [8] came to 13 ng/mL (≈ 0.0325 µM). Besides, the “MAC (Minimal Active Concentration)” value in data set [4] is 0.123 µg/mL. Also, the IC50-C in data set [6] is more than 10 µg/mL.

For the molecule `CCNC(=Nc1ncncc1CSc1nnc(-c2ccncc2)o1)NCC` [Compound D-41], the “IC50, RERF-LC-AI” value in data set [2] worked out at 24 ng/mL (≈ 0.0624 µM). Besides, in data set [3], the “IC50, Ma44” value worked out at 55 ng/mL (≈ 0.143 µM). The “IC50, A549” value in [7] was 70 ng/mL (≈ 0.182 µM). In addition, in the data set with human colon cancer HT29, the “IC50, HT29” value came to 40 ng/mL (≈ 0.104 µM). Moreover, the “IC50, PANC-1” value in data set [8] worked out at 49 ng/mL (≈ 0.127 µM). Further, the “MAC (Minimal Active Concentration)” value in [4] is 1.11 µg/mL. Also, the IC50-C in [6] is more than 10 µg/mL.

The molecule `CCN/C(=N\c1nc(C)ncc1CSc1nnc(-c2ccc([N+](=O)[O-])cc2)o1)SC` [Compound G-1] displayed a melting point of 156 to 157 °C. For the same molecule, the half-maximal inhibitory concentration (IC50) in data set [2] (Homo sapiens, 96 h, read-out: IC50, RERF-LC-AI) came out at 0.046 µg/mL (≈ 0.103 µM). For the same molecule, in data set [3] (Homo sapiens, 96 h), the 50% inhibitory concentration (IC50) turned out to be 0.056 µg/mL (≈ 0.126 µM). Besides, the concentration for half-maximal inhibition (IC50) in data set [7] (Homo sapiens, A549, 96 h) was 0.063 µg/mL (≈ 0.141 µM). The molecule also gave an IC50 in the data set on human colon cancer HT29 (Homo sapiens, HT-29, 96 h) of 0.052 µg/mL (≈ 0.117 µM). The IC50 in data set [8] (Homo sapiens, PANC-1, 96 h) came to 0.051 µg/mL (≈ 0.114 µM). For the same molecule, the “MAC (Minimal Active Concentration)” value in data set [4] was determined as 0.370 µg/mL. The same molecule came in with a 50% inhibitory concentration (IC50) in data set [6] (Mus musculus, NIH3T3) of more than 10 µg/mL.
